{
  "source": "patent US20070003640A1",
  "about": "“Process for controlling the isomerization of (-)-epicatechin and (+)-catechin in edible products” (priority 2005, published 2007)",
  "test": "Isomerization of (+)-catechin to (+)-epicatechin",
  "format": "physicochemical",
  "conditions": "equilibrium mixture from isomerization of (+)-catechin",
  "description": "While the above examples were specifically directed to the isomerization of (−)-epicatechin to (−)-catechin, it will be understood that the same processes can and will result in the isomerization of (+)-catechin to (+)-epicatechin. It will further be understood that the kinetics for the isomerization of (+)-catechin to (+)-epicatechin are similar to those for the isomerization of (−)-epicatechin to (−)-catechin, viz., the equilibrium point for a given set of temperature and pH parameters is essentially the same for either isomerization, and the equilibrium mixture resulting from the isomerization of (+)-catechin is about 70% (+)-catechin and about 30% (+)-epicatechin, with a molar ratio of (+)-epicatechin to (+)-catechin of about 1:2. Indeed, we have observed that the isomerization of (+)-catechin to (+)-epicatechin favors the same equilibrium point as the isomerization of (−)-epicatechin to (−)-catechin, that is, the molar ration of 1:2 (+)-epicatechin:(+)-catechin.",
  "data": [
    {"compound": "Oc1cc(O)c2c(c1)O[C@H](c1ccc(O)c(O)c1)[C@@H](O)C2", "note": "[(+)-catechin]", "values": [
      {"measurement": "(+)-catechin in equilibrium mixture", "value": "about 70%"},
      {"measurement": "(+)-epicatechin in equilibrium mixture", "value": "about 30%"}
    ]}
  ]
}
